Test results from US20210000966A1, “HSP90-TARGETING CONJUGATES AND FORMULATIONS THEREOF” (TARVEDA THERAPEUTICS, INC., priority 2017, published 2021).
Where two headings read alike, the source gives them in different places. Values belong to the molecule of their own block, whether it stands above or below them.

Columns and labels:
NCI-H460 cells = assay: NCI-H460 tumor cell cytotoxicity assay (CellTiter-Glo); assay type: cell-based; settings: Homo sapiens, NCI-H460, 48 h
Method: NCI-H460 cells (non-small cell lung cancer) were plated at 500 cells per well and incubated for 20-24 hrs at 37° C. at 5% CO2. Post cell incubation, compounds were reconstituted in DMSO to a stock concentration of 200 uM. A compound plate was then prepared containing a 10 point dilution in RPMI+10% FBS+0.25% DMSO. 5 uL of the dilution was then added for a final working concentration range of 10 uM to 0.0005 uM. Compounds and cells were then incubated for 48 hrs. Cells were then analyzed by CellTiter-Glo for ATP levels and percent inhibition calculated.

topoisomerase-I = target: T1, topoisomerase-I (Homo sapiens, UniProt P11387); assay: DNA damage / topoisomerase activity (FIG. 9); assay type: biochemical; settings: FIG. 9, in words
T1 sequence (P11387 1-765): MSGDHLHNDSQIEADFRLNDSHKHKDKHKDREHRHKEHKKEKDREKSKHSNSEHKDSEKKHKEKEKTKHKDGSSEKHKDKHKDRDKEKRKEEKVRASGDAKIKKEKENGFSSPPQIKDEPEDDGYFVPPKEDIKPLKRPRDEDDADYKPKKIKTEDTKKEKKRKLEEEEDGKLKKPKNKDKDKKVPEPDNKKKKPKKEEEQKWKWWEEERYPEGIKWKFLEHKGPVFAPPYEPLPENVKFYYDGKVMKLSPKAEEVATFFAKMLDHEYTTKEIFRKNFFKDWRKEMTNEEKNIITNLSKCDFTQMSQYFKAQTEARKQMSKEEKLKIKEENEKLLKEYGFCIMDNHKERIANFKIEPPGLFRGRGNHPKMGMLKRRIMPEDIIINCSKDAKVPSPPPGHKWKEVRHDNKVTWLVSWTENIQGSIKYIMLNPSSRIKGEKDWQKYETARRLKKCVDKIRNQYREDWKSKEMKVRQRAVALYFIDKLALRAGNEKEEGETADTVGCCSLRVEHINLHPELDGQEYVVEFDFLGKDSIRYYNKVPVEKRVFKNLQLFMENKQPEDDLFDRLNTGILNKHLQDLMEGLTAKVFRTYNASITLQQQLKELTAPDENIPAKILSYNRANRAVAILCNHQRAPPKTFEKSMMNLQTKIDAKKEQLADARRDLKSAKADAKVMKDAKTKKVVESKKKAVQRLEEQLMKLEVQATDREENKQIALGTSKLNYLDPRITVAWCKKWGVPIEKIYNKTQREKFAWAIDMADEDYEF
Excerpt: In one further study, DNA damage caused by Conjugate 48 (a conjugate comprising a ganetespib derivative and SN-38) was compared with the DNA damage caused by SN-38, the payload of Conjugate 48. SN-38 and its pre-drug, irinotecan (an analog of camptothecin), are inhibitors of topoisomerase-I and potently cause DNA damage that results in nicks in the DNA. […] The conjugation of SN-38 to the HSP90 ligand results in the masking of the activity of SN-38 until it can be selectively delivered to tumors where linker cleavage occurs.

HSP90α = target: T2, HSP90α (Homo sapiens, UniProt P07900); assay: HSP90 binding, HSP90α Assay Kit (fluorescence polarization, labeled geldanamycin competition)
T2 construct: purchased
Method: The bindings of the conjugates to HSP90 were studied with the HSP90α Assay Kit. The HSP90α Assay Kit is designed for identification of HSP90α inhibitors using fluorescence polarization. The assay is based on the competition of fluorescently labeled geldanamycin for binding to purified recombinant HSP90α. The key to the HSP90α Assay Kit is the fluorescently labeled geldanamycin. The fluorescently labeled geldanamycin is incubated with a sample containing HSP90α enzyme to produce a change in fluorescent polarization that can then be measured using a fluorescence reader.

human total EbB2/Her2 = assay: HER2 degradation assay (ELISA) in BT474 cells; assay type: cell-based; settings: BT-474, 16 hrs, read-out: Her2 Degradation IC50 Abs IC50
Method: BT474 (breast cancer) cells were plated at 12,000 cells per well and incubated for 20-24 hrs at 37° C. at 5% CO2. Post cell incubation, compounds were reconstituted in DMSO to a stock concentration of 5 mM. A compound plate was then prepared containing a 10 point dilution in DMSO. 2 uL of these dilutions were then added to the cells for a final working concentration of 5 uM to 0.0003 uM. Compounds and cells were incubated for 16 hrs. Media was then removed, cells washed, lysed, and analyzed for human total EbB2/Her2 levels by ELISA.

PARP = PARP inhibiting activity (FIG. 8A); assay type: biochemical; settings: in words
Excerpt: (§1) The activity of the respective payload is blocked until the linker moiety gets cleaved in the tumor and releases active unblocked payload. Through the HSP90 platform, toxicity is mitigated by masking the payload's active site until it can be delivered to the tumor.
(§2) FIG. 8A compares the activity of Conjugate 45 and its payload (talazoparib). FIG. 8B compares the activity of Conjugate 46 and its payload (ulixertinib). FIG. 8C compares the activity of Conjugate 47 and its payload TAK-733. The data further support that attaching a payload to a HSP90 binding ligand blocks the target activity of the payload. The HSP90 bindings of the HSP90 ligands are not affected.

ERK1/2 = ERK1/2 inhibiting activity (FIG. 8B); assay type: biochemical; settings: in words
Excerpt: as §1, §2

[1] = test system: LS174t colon tumor xenograft; assay: LS174t colon tumor xenograft model, efficacy; assay type: in vivo, mice; settings: FIG. 3A, in words
[2] = assay type: in vivo, mice; settings: LS174t xenograft, in words
Method: Accumulation and retention of Conjugate 38 was tested in this tumor xenograft model.

[3] = Glucose levels post dosing in mice; assay type: in vivo; settings: FIG. 7, in words
Excerpt: In an in vivo study in mice, glucose levels were monitored post PI3K inhibitor (Copanlisib) and Conjugate 38 dosing. […] Therefore, conjugating a PI3K enzyme inhibitor payload to a HSP90 targeting ligand reduced the normal tissue activity of glucose increase in mice.

[4] = n = 1, read-out: H460 in vitro cytotoxicity
[5] = n = 2, read-out: H460 in vitro cytotoxicity

Compound: COc1c(OCCCN2CCN(C(=O)Oc3ccc(CC(=O)N4CCC(CCn5ccc6cc(-n7c(O)nnc7-c7cc(C(C)C)c(O)cc7O)ccc65)CC4)cc3)CC2)ccc2c1N=C(NC(=O)c1cnc(N)nc1)N1CCN=C21 [Compound 40]
IC50 (NCI-H460 cells; [4]): 247 nM | IC50 (NCI-H460 cells; [5]): 56 nM

Compound: CCc1c2c(nc3ccc(OC(=O)N4CCC(CCn5ccc6cc(-n7c(O)nnc7-c7cc(C(C)C)c(O)cc7O)ccc65)CC4)cc13)-c1cc3c(c(=O)n1C2)COC(=O)[C@]3(O)CC [Conjugate 48]
DNA damage (topoisomerase-I): negligible levels of DNA damage up to 100 uM

Kd (HSP90α; read-out: HSP90 KD): 1.2 nM
Compound: CCNC(=O)c1nnc(-c2cc(C(C)C)c(O)cc2O)n1-c1ccc(N(C)C2CCN(C(=O)CCC(=O)OC[C@H](O)Cn3cnc4c(c(Nc5ccc(I)cc5F)c(F)c(=O)n4C)c3=O)CC2)cc1 [Compound 47]

Compound: CCNC(=O)c1nnc(-c2cc(C(C)C)c(O)cc2O)n1-c1ccc(CN2CCN(C(=O)c3ccc(OC(=O)N4CCN(CCCOc5ccc6c(c5OC)N=C(NC(=O)c5cnc(N)nc5)N5CCN=C65)CC4)cc3)CC2)cc1 [Compound 30]
IC50 (human total EbB2/Her2): 38 nM | Kd (HSP90α; read-out: HSP90 Binding Kd): 0.68 nM

Compound: CC(C)c1cc(-c2nnc(O)n2-c2ccc(CN3CCN(CCC(C)(C)SS[C@H](C)COC(=O)N(CCN(C)C)Cn4nc5c6c(cc(F)cc6c4=O)N[C@H](c4ccc(F)cc4)[C@H]5c4ncnn4C)CC3)cc2)c(O)cc1O [Conjugate 45]
PARP inhibiting activity compared with payload (talazoparib) (PARP): lower than its payload

IC50 (human total EbB2/Her2): 72 nM
Compound: CCNC(=O)c1nnc(-c2cc(C(C)C)c(O)cc2O)n1-c1ccc(CN2CCN(C(=O)N3CCN(CCCOc4ccc5c(c4OC)N=C(NC(=O)c4cnc(N)nc4)N4CCN=C54)CC3)CC2)cc1 [Compound 36]

Compound: CCNC(=O)c1nnc(-c2cc(C(C)C)c(O)cc2O)n1-c1ccc(C(=O)N2CCN(Cc3ccc(OC(=O)N4CCN(CCCOc5ccc6c(c5OC)N=C(NC(=O)c5cnc(N)nc5)N5CCN=C65)CC4)cc3)CC2)cc1 [Compound 32]
IC50 (human total EbB2/Her2): 49 nM | Kd (HSP90α; read-out: HSP90 Binding Kd): 0.86 nM

Compound: CCc1c2c(nc3ccc(OC(=O)N4CCC(N5CCCCC5)CC4)cc13)-c1cc3c(c(=O)n1C2)COC(=O)[C@]3(O)CC [irinotecan]
DNA damage (topoisomerase-I): moderate level of DNA damaging activity

Compound: CCNC(=O)c1nnc(-c2cc(C(C)C)c(O)cc2O)n1-c1ccc(CN2CCN(C(=O)Cc3ccc(CC(=O)N(C)CCCOc4ccc5c(c4OC)N=C(NC(=O)c4cnc(N)nc4)N4CCN=C54)cc3)CC2)cc1 [Compound 43]
IC50 (NCI-H460 cells; [4]): 42 nM | IC50 (NCI-H460 cells; [5]): 31 nM

Compound: CCNC(=O)c1nnc(-c2cc(C(C)C)c(O)cc2O)n1-c1ccc(CN2CCN(C(=O)Oc3ccc(OC(=O)N4CCN(CCCOc5ccc6c(c5OC)N=C(NC(=O)c5cnc(N)nc5)N5CCN=C65)CC4)cc3)CC2)cc1 [Compound 37]
IC50 (human total EbB2/Her2): 119 nM

Compound: COc1c(OCCCN2CCN(C(=O)Oc3ccc(CC(=O)N4CCN(Cc5ccc(-n6c(O)nnc6-c6cc(C(C)C)c(O)cc6O)cc5)CC4)cc3)CC2)ccc2c1N=C(NC(=O)c1cnc(N)nc1)N1CCN=C21 [Compound 39]
IC50 (human total EbB2/Her2): > 20000 nM | Kd (HSP90α; read-out: HSP90 Binding Kd): 1.8 nM

Compound: CCNC(=O)c1nnc(-c2cc(C(C)C)c(O)cc2O)n1-c1ccc(C(=O)N2CCN(c3ccc(OC(=O)N4CCN(CCCOc5ccc6c(c5OC)N=C(NC(=O)c5cnc(N)nc5)N5CCN=C65)CC4)cc3)CC2)cc1 [Compound 29]
IC50 (human total EbB2/Her2): 59 nM | Kd (HSP90α; read-out: HSP90 Binding Kd): 1.03 nM

Kd (HSP90α; read-out: HSP90 KD): 1 nM
Compound: CCNC(=O)c1nnc(-c2cc(C(C)C)c(O)cc2O)n1-c1ccc(CN2CCC(C(=O)N3CCC(C(=O)OC[C@@H](NC(=O)c4cc(-c5cc(NC(C)C)ncc5Cl)c[nH]4)c4cccc(Cl)c4)CC3)CC2)c(F)c1 [Compound 46]

Compound: CCNC(=O)c1nnc(-c2cc(C(C)C)c(O)cc2O)n1-c1ccc(CN2CCC(C(=O)N3CCN(c4ccc(OC(=O)N5CCN(CCCOc6ccc7c(c6OC)N=C(NC(=O)c6cnc(N)nc6)N6CCN=C76)CC5)cc4)CC3)CC2)cc1 [Compound 31]
IC50 (human total EbB2/Her2): 103 nM | Kd (HSP90α; read-out: HSP90 Binding Kd): 1.38 nM

Compound: CCNC(=O)c1nnc(-c2cc(C(C)C)c(O)cc2O)n1-c1ccc(C(=O)NCc2cc(C)c(OC(=O)N3CCN(CCCOc4ccc5c(c4OC)N=C(NC(=O)c4cnc(N)nc4)N4CCN=C54)CC3)c(C)c2)cc1 [Compound 34]
IC50 (human total EbB2/Her2): 141 nM | Kd (HSP90α; read-out: HSP90 Binding Kd): 1.37 nM

Compound: CCNC(=O)c1nnc(-c2cc(C(C)C)c(O)cc2O)n1-c1ccc(CN2CCC(C(=O)N3CCC(C(=O)OC[C@@H](NC(=O)c4cc(-c5cc(NC(C)C)ncc5Cl)c[nH]4)c4cccc(Cl)c4)CC3)CC2)c(F)c1 [Conjugate 46]
ERK1/2 inhibiting activity compared with payload (ulixertinib) (ERK1/2): lower than its payload

Compound: CCNC(=O)c1nnc(-c2cc(C(C)C)c(O)cc2O)n1-c1ccc(C(=O)N2CCN(Cc3ccc(OC(=O)N4CCN(CCCOc5ccc6c(c5OC)N=C(NC(=O)c5cnc(N)nc5)N5CCN=C65)CC4)c(C)c3)CC2)cc1 [Compound 33]
IC50 (human total EbB2/Her2): 41 nM | Kd (HSP90α; read-out: HSP90 Binding Kd): 1.03 nM

Kd (HSP90α; read-out: HSP90 KD): 0.33 nM
Compound: CC(C)c1cc(-c2nnc(O)n2-c2ccc(CN3CCN(CCC(C)(C)SS[C@H](C)COC(=O)N(CCN(C)C)Cn4nc5c6c(cc(F)cc6c4=O)N[C@H](c4ccc(F)cc4)[C@H]5c4ncnn4C)CC3)cc2)c(O)cc1O [Compound 45]

Compound: CCNC(=O)c1nnc(-c2cc(C(C)C)c(O)cc2O)n1-c1ccc(C(=O)NCCc2ccc(OC(=O)N(C)CCCOc3ccc4c(c3OC)N=C(NC(=O)c3cnc(N)nc3)N3CCN=C43)cc2)cc1 [Compound 44]
IC50 (NCI-H460 cells; [4]): 527 nM | IC50 (NCI-H460 cells; [5]): 325 nM

Compound: CCNC(=O)c1nnc(-c2cc(C(C)C)c(O)cc2O)n1-c1ccc(C(=O)NCCc2ccc(OC(=O)N(CCCOc3ccc4c(c3OC)N=C(NC(=O)c3cnc(N)nc3)N3CCN=C43)C(C)C)cc2)cc1 [Compound 42]
IC50 (NCI-H460 cells; [4]): 135 nM | IC50 (NCI-H460 cells; [5]): 147 nM

Compound: CC(C)c1cc(-c2nnc(O)n2-c2ccc3c(ccn3C)c2)c(O)cc1O [ganetespib, reference compound]
efficacy (tumor growth inhibition) in LS174t xenograft [1]: lack of efficacy | DNA damage (topoisomerase-I): none

tumor retention time [2]: much shorter tumor retention time | glucose concentration after dosing [3]: increase in glucose levels
Compound: COc1c(OCCCN2CCOCC2)ccc2c1N=C(NC(=O)c1cnc(N)nc1)N1CCN=C21 [Copanlisib, reference compound]
efficacy (tumor growth inhibition) in LS174t xenograft [1]: lack of efficacy

Compound: CCc1c2c(nc3ccc(O)cc13)-c1cc3c(c(=O)n1C2)COC(=O)[C@]3(O)CC [SN-38]
DNA damage (topoisomerase-I): DNA damage even at 1 uM
